Measured values reported in patent publication US7524871B2, “Thrombin inhibitors” (University of Ljubljana, Faculty of Pharmacy, priority 2001, dated 2009).
Where two headings read alike, the source gives them in different places.

What was measured:
human thrombin = molecular target: T1, human thrombin (Homo sapiens, UniProt P00734); assay: Enzyme assay for determination of the activity of thrombin inhibitors (chromogenic substrate S-2238); assay type: biochemical
T1 construct: Thrombin (human thrombin, 308 NIH units, Sigma); purchased Sigma
Description: I. Enzyme Assay for Determination of the Activity of Thrombin Inhibitors
Thrombin cleaves amide bonds in a synthetic chromogenic substrate whereby […] coloured p-nitroaniline (p-NA) is released. The amount of p-NA produced is directly proportionate to the absorbance measured at a wavelength of 405 nm using a spectrophotometer. When thrombin inhibitor is added, the amidolytic activity of the enzyme decreases. The potency of the inhibitor is expressed by the inhibition constant (Ki).
The stock solution is pipetted into 0.5 mL aliquots and stored at −70° C. Immediately before use a working solution of thrombin of […] is prepared with HBSA buffer. The final concentration of thrombin in a microtiter plate is 0.5 NIH units/mL.
1 mM substrate solution is prepared, pipetted into 0.5 mL aliquots and stored at −20° C. Before use, 160 and 80 μM substrate solutions of the substrate are prepared with distilled water.
(§1) HBSA buffer, pH 7.5: 10 mM Hepes buffer (HEPES, Sigma), 150 mM NaCl and 0.1% (w/v) bovine serum albumin (98% bovine serum albumin, Sigma) are dissolved in bidistilled water. The pH is adjusted with 0.1 M NaOH solution.
Working solutions (final concentrations within the range 10 to 100 μM) are prepared with distilled water.
Measurements are carried out in the microtiter plate. 50 μL HBSA buffer, 50 μL inhibitor solution of different concentrations (for control 50 μL HBSA buffer) and 50 μL of thrombin solution are pipetted into the wells of a microtiter plate. The plate is incubated at a temperature of 25° C. for 15 minutes. After incubation 50 μL of the chromogenic substrate is added and the microtiter plate is placed in the spectrophotometer (Tecan, Sunrise).
(§2) Each measurement is carried out in triplicate and the result is the averaged value of three measurements.
(§3) 4. Determination of the Inhibition Constant (Ki)
Initial velocities of the reaction in the presence and absence of the inhibitor are measured. The change in the absorbance in the time unit (v) is calculated from the initial, linear part of the reaction. For competitive inhibitors it holds that
[formula] and it follows that
[formula] I=inhibitor concentration, S=substrate concentration, Km=Michaelis constant, vo=initial velocity of the reaction in the absence of inhibitor, vi=initial velocity of the reaction in the presence of inhibitor.
Measurements are carried out with two concentrations of the inhibitor and two concentrations of the substrate.

Trypsin (bovine) = molecular target: T2, Trypsin (bovine) (Bos taurus, UniProt P00760); assay: Determination of selectivity of the inhibitor activity against thrombin with respect to trypsin inhibition (chromogenic substrate S-2222); assay type: biochemical; settings: for Ki: bovine trypsin 1 mU/mL, S-2222 100 and 50 μM, HBSA buffer pH 7.5; for Ki trypsin/ Ki thrombin: selectivity, ratio of Ki for trypsin to Ki for thrombin
T2 construct: purchased Sigma
T2 sequence (P00760 24-246): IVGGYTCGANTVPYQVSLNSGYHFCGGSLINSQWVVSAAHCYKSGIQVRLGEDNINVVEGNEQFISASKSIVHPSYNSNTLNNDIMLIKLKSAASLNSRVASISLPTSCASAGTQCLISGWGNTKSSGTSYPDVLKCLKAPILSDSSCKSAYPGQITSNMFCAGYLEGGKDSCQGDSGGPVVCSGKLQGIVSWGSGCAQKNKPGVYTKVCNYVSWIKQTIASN
Description: II. Determination of Selectivity of the Inhibitor Activity Against Thrombin with Respect to Trypsin Inhibition
The inhibitory activity against thrombin is determined as described above. Trypsin inhibition is measured in the same manner as in determination of inhibitory activity for thrombin except that a different chromogenic substrate is used. For both enzymes Ki is calculated. Selectivity of the inhibitor is expressed as a ratio of Ki for trypsin to Ki for thrombin.
Trypsin (bovine, 6000 BAEE Units/mg protein, Sigma): A stock solution of trypsin with the activity of 300 U/mL is prepared, pipetted into 0.2 mL aliquots and stored at −70° C. Immediately before use, the stock solution is thawed and a working solution of 4 mU/mL is prepared with HBSA buffer. The final trypsin activity in a microtiter plate is 1 mU/mL.
Before use the stock solution is thawed and 400 and 200 μM substrate solutions are prepared The final concentrations of the substrate in the reaction mixture are 100 and 50 μM.
as §1
Working solutions (final concentrations in the range from 10 to 600 μM) are prepared with distilled water.
as §2
The procedure is the same as the procedure described for determination of the inhibitory activity against thrombin. The concentrations of the reagents described for determination of the inhibitory activity with respect to trypsin are used.
as §3
It is determined in the same manner as determination of Ki for thrombin.
5. Determination of the Selectivity
Ki for thrombin and Ki for trypsin are determined. The selectivity is defined as the ratio: […]

[1] = human thrombin 0.5 NIH units/mL, S-2238 40 and 20 μM, HBSA buffer pH 7.5, 25° C., read-out: Ki thrombin

SMILES | Ki (human thrombin; [1]) [nM] | Ki (Trypsin (bovine)) [µM] | Ki trypsin/ Ki thrombin (Trypsin (bovine)) | Ki (human thrombin) [nM]
Cc1ccc(NS(=O)(=O)Cc2ccccc2)c(=O)n1CC(=O)NCC1CCc2n[nH]cc2C1 (stereo not drawn) | 210 | 376 | 1790 | 
Cc1ccc(NS(=O)(=O)Cc2cccc(C(F)(F)F)c2)c(=O)n1CC(=O)NC1CCc2nc(N)sc2C1 (stereo not drawn) | 650 | > 200 | >300 | 
Cc1ccc(NS(=O)(=O)Cc2ccccc2)c(=O)n1CC(=O)NC1CCc2nc(N)sc2C1 (stereo not drawn) | 160 | 260 | 1625 | 
Cc1ccc(NCCc2ccccc2)c(=O)n1CC(=O)NC1CCc2nc(N)sc2C1 (stereo not drawn) | 690 | 147 | 213 | 
Cc1ccc(NS(=O)(=O)Cc2ccc(F)cc2Cl)c(=O)n1CC(=O)NCC1CCc2n[nH]cc2C1 (stereo not drawn) | 160 | > 300 | >1875 | 
CCCCS(=O)(=O)Nc1ccc(C)n(CC(=O)NC2CCc3nc(N)sc3C2)c1=O (stereo not drawn) | 1300 | 50 | 37 | 
Cc1ccc(NS(=O)(=O)Cc2ccccc2)c(=O)n1CC(=O)NC1CCc2n[nH]cc2C1 (stereo not drawn) | 4700 | 438 | 93 | 
Cc1ccc(NS(=O)(=O)Cc2ccc(F)cc2Cl)c(=O)n1CC(=O)NC1CCc2nc(N)sc2C1 (stereo not drawn) |  | 193 | 1097 | 160
Cc1ccc(NCCc2ccccc2)c(=O)n1CC(=O)NCC1CCc2n[nH]cc2C1 (stereo not drawn) | 820 | 421 | 526 | 
